Consider 31 compounds from patent US8822467B2 (Ligand Pharmaceuticals Inc., priority 2009, dated 2014).

This assay concerns the target T1, human CRTH2 (Homo sapiens, UniProt Q9Y5Y4).
T1 construct: expressed in transfected cells
T1 sequence (Q9Y5Y4 1-395): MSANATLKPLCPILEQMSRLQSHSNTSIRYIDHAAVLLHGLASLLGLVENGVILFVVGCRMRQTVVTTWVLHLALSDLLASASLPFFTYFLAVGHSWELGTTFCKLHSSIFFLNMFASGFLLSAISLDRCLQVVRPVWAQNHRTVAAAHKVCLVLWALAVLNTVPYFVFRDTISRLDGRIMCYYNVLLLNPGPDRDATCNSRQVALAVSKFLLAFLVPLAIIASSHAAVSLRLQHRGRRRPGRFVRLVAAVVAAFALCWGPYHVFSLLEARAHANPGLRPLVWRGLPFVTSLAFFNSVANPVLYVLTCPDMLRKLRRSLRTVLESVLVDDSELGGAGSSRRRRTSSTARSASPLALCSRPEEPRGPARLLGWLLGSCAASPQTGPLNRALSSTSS
Nature of the assay: [35S]GTPγS binding assay (SPA) on membranes from CHO-K1 cells stably expressing human CRTH2, stimulated with 60 nM DHK-PGD2. The settings on record: potency class symbols; Table 2; read-out: CRTH2 hGTPγS IC50. It is filed as biochemical. On the procedure: [^35S]GTPγS Binding Assay
SPA [^35S]G-TPγS binding was performed on membranes from CHO-K1 cells stably expressing human CRTH2. To a white, clear-bottomed 384-well plate, 4 μg membrane protein was incubated in the binding buffer (20 mM HEPES, pH 7.4, 10 mM MgCl2, 300 mM NaCl, 0.2% BSA) with 60 nM DHK-PGD2, 500 pM [^35S]GTPγS, 10 μM GDP, and 100 μg wheat germ agglutinin-coupled SPA beads (GE Healthcare) with and without increasing concentrations of compounds. The final assay volume was 40 μL and contained 1% DMSO. Samples were incubated for 2 h at ambient temperature. Plates were centrifuged 5 min at 1500 rpm. Plates were read after an additional 4 h using the Trilux 1450 Microbeta (PerkinElmer) with a 30 sec/well reading time.
On the technique in general: Binding of GTPγS marks nucleotide exchange on a G protein.
Turning to `CN(Cc1ccc(OCC(=O)O)c(-c2cccc(C#N)c2)c1)S(=O)(=O)c1cccc(Cl)c1` [Example 70, 2-(3-cyanophenyl)-4-((3-chloro-N-methylphenylsulfonamido)methyl)phenoxyacetic acid], the IC50 is less than 100 nM.

Turning to `COc1ccc(S(=O)(=O)N(C)Cc2ccc(OCC(=O)O)c(-c3cccc(S(C)(=O)=O)c3)c2)cc1` [Example 69, 2-(3-methylsulfonylphenyl)-4-((4-methoxy-N-methylphenylsulfonamido)methyl)phenoxyacetic acid], the IC50 is less than 100 nM.

As to `CN(Cc1ccc(OCC(=O)O)c(-c2cccc(S(C)(=O)=O)c2)c1)S(=O)(=O)c1ccc(F)cc1` [Example 60, 2-(3-methylsulfonylphenyl)-4-((4-fluoro-N-methylphenylsulfonamido)methyl)phenoxyacetic acid], the half-inhibitory concentration (IC50) is less than 100 nM. `CN(Cc1ccc(OCC(=O)O)c(-c2cccc(C#N)c2)c1)S(=O)(=O)c1ccc(F)cc1` [Example 5, 2-(2-(3-cyanophenyl)-4-((4-fluoro-N-methylphenylsulfonamido)methyl)phenoxy)acetic acid]: the IC50 is less than 100 nM. The value for `COCc1cccc(-c2cc(CN(C)S(=O)(=O)c3ccc(F)cc3)ccc2OCC(=O)O)c1` [Example 114, 2-(3-methoxymethylphenyl)-4-((4-fluoro-N-methylphenylsulfonamido)methyl)phenoxyacetic acid] was 100 to 1000 nM; that for `CN(Cc1ccc(OCC(=O)O)c(-c2ccc(Cl)cc2)c1)S(=O)(=O)c1ccc(F)cc1` [Example 165, 2-(4-chlorophenyl)-4-((4-fluoro-N-methylphenylsulfonamido)methyl)phenoxyacetic acid] was 1000 to 10000 nM. The value for `CN(Cc1ccc(OCC(=O)O)c(-c2ccc3ccn(C)c3c2)c1)S(=O)(=O)c1ccc(F)cc1` [Example 101, 2-(1-methyl-indol-6-yl)-4-((4-fluoro-N-methylphenylsulfonamido)methyl)phenoxyacetic acid] was less than 100 nM. As for `CN(Cc1cc(-c2cc(F)cc(C#N)c2)c(OCC(=O)O)cc1F)S(=O)(=O)c1cccc(Cl)c1` [Example 210, 2-(3-cyano-5-fluoro-phenyl)-4-((3-chloro-N-methylphenylsulfonamido)methyl)-5-fluorophenoxyacetic acid], the 50% inhibitory concentration (IC50) is less than 100 nM. In the case of `COC(=O)c1cccc(-c2cc(CN(C)S(=O)(=O)c3ccc(F)cc3)ccc2OCC(=O)O)c1` [Example 141, 2-(3-methoxycarbonylphenyl)-4-((4-fluoro-N-methylphenylsulfonamido)methyl)phenoxyacetic acid], the half-maximal inhibitory concentration (IC50) lay in the range of 100 to 1000 nM. Next, `CN(Cc1ccc(OCC(=O)O)c(-c2cccc(C(F)(F)F)c2)c1)S(=O)(=O)c1cccc(Cl)c1` [Example 111, 2-(3-trifluoromethylphenyl)-4-((3-chloro-N-methylphenylsulfonamido)methyl)phenoxyacetic acid]: 100 to 1000 nM; `CCN(Cc1ccc(OCC(=O)O)c(-c2cccc(C(F)(F)F)c2)c1)S(=O)(=O)c1ccc(F)cc1` [Example 140, 2-(3-trifluoromethylphenyl)-4-((4-fluoro-N-ethylphenylsulfonamido)methyl)phenoxyacetic acid]: 100 to 1000 nM; `CC(C)N(Cc1ccc(OCC(=O)O)c(-c2cccc(C(F)(F)F)c2)c1)S(=O)(=O)c1ccc(F)c(F)c1` [Example 152, 2-(3-trifluoromethylphenyl)-4-((3,4-difluoro-N-isopropylphenylsulfonamido)methyl)phenoxyacetic acid]: 1000 to 10000 nM. Next, `CS(=O)(=O)c1cccc(-c2cc(CNS(=O)(=O)c3ccc(F)cc3)ccc2OCC(=O)O)c1` [Example 81, 2-(3-methylsulfonylphenyl)-4-((4-fluorophenylsulfonamido)methyl)phenoxyacetic acid]: less than 100 nM; `CN(Cc1ccc(OCC(=O)O)c(-c2cccc(Br)c2)c1)S(=O)(=O)c1ccc(F)cc1` [Example 142, 2-(3-bromophenyl)-4-((4-fluoro-N-methylphenylsulfonamido)methyl)phenoxyacetic acid]: 100 to 1000 nM; `CC(C)N(Cc1ccc(OCC(=O)O)c(-c2cccc(C(F)(F)F)c2)c1)S(=O)(=O)c1cc(F)cc(F)c1` [Example 174, 2-(3-trifluoromethylphenyl)-4-((3,5-difluoro-N-isopropylphenylsulfonamido)methyl)phenoxyacetic acid]: 1000 to 10000 nM. Next, `COc1ccc(S(=O)(=O)N(C)Cc2ccc(OCC(=O)O)c(-c3cccc(C#N)c3)c2)cc1` [Example 104, 2-(3-cyanophenyl)-4-((4-methoxy-N-methylphenylsulfonamido)methyl)phenoxyacetic acid]: 100 to 1000 nM; `CN(Cc1ccc(OCC(=O)O)c(-c2cccc(C(F)(F)F)c2)c1)S(=O)(=O)c1ccccc1` [Example 131, 2-(3-trifluoromethylphenyl)-4-((N-methylphenylsulfonamido)methyl)phenoxyacetic acid]: 100 to 1000 nM. As for `CN(Cc1ccc(OCC(=O)O)c(-c2cccc(S(C)(=O)=O)c2)c1)S(=O)(=O)c1ccccc1F` [Example 94, 2-(3-methylsulfonylphenyl)-4-((2-fluoro-N-methylphenylsulfonamido)methyl)phenoxyacetic acid], the IC50 was less than 100 nM.

For the compound `CN(Cc1ccc(OCC(=O)O)c(-c2cccc(C(F)(F)F)c2)c1)S(=O)(=O)c1cccc2ccccc12` [Example 145, 2-(3-trifluoromethylphenyl)-4-((N-methylnaphthalene-1-sulfonamido)methyl)phenoxyacetic acid], the IC50 was in the range of 100 to 1000 nM. The value for `CN(Cc1ccc(OCC(=O)O)c(-c2cccc(S(C)(=O)=O)c2)c1)S(=O)(=O)c1ccc(C#N)cc1` [Example 86, 2-(3-methylsulfonylphenyl)-4-((4-cyano-N-methylphenylsulfonamido)methyl)phenoxyacetic acid] was less than 100 nM; that for `CN(Cc1ccc(OCC(=O)O)c(-c2ccccc2Cl)c1)S(=O)(=O)c1ccc(F)cc1` [Example 177, 2-(2-chlorophenyl)-4-((4-fluoro-N-methylphenylsulfonamido)methyl)phenoxyacetic acid] was 1000 to 10000 nM. The value for `CCS(=O)(=O)c1cccc(-c2cc(CN(C)S(=O)(=O)c3ccc(F)c(F)c3)ccc2OCC(=O)O)c1` [Example 58, 2-(3-ethylsulfonylphenyl)-4-((3,4-difluoro-N-methylphenylsulfonamido)methyl)phenoxyacetic acid] was less than 100 nM. The value for `CN(C)S(=O)(=O)N(C)Cc1ccc(OCC(=O)O)c(-c2cccc(C(F)(F)F)c2)c1` [Example 182, 2-(3-trifluoromethylphenyl)-4-((N-methyldimethylaminosulfonamido)methyl)phenoxy acetic acid] was 1000 to 10000 nM. Take `N#Cc1cccc(-c2cc(CNS(=O)(=O)c3ccc(F)cc3)ccc2OCC(=O)O)c1` [Example 9, 2-(2-(3-cyanophenyl)-4-((4-fluorophenylsulfonamido)methyl)phenoxy)acetic acid]: the IC50 is less than 100 nM. Next, `CN(Cc1cc(-c2cccc(C#N)c2)c(OCC(=O)O)cc1Cl)S(=O)(=O)c1ccc(F)cc1` [Example 49, 2-(3-cyanophenyl)-4-((4-fluoro-N-methylphenylsulfonamido)methyl)-5-chlorophenoxyacetic acid]: less than 100 nM. For the compound `CN(Cc1ccc(OCC(=O)O)c(-c2cncc(S(C)(=O)=O)c2)c1)S(=O)(=O)c1ccc(F)cc1` [Example 75, 2-(3-methylsulfonyl-5-pyridinyl)-4-((4-fluoro-N-methylphenylsulfonamido)methyl)phenoxyacetic acid], the IC50 is less than 100 nM.

On to `Cc1ccc(-c2cc(CN(C)S(=O)(=O)c3ccc(F)cc3)ccc2OCC(=O)O)cc1S(C)(=O)=O` [Example 84, 2-(3-methylsulfonyl-4-methyl-phenyl)-4-((4-fluoro-N-methylphenylsulfonamido)methyl)phenoxyacetic acid], for which the IC50 was less than 100 nM. The value for `CN(Cc1cc(-c2cccc(C#N)c2)c(OCC(=O)O)cc1Cl)S(=O)(=O)c1ccccc1` [Example 73, 2-(3-cyanophenyl)-4-((N-methylphenylsulfonamido)methyl)-5-chlorophenoxyacetic acid] was less than 100 nM. The value for `CN(Cc1ccc(OCC(=O)O)c(-c2ccc(F)c(Cl)c2)c1)S(=O)(=O)c1ccc(F)cc1` [Example 157, 2-(3-chloro-4-fluorophenyl)-4-((4-fluoro-N-methylphenylsulfonamido)methyl)phenoxyacetic acid] was 1000 to 10000 nM; that for `CN(Cc1ccc(OCC(=O)O)c(-c2ccc3ccncc3c2)c1)S(=O)(=O)c1ccc(F)cc1` [Example 212, 2-(isoquinolin-7-yl)-4-((4-fluoro-N-methylphenylsulfonamido)methyl)phenoxyacetic acid] was 100 to 1000 nM; that for `Cc1noc(C)c1S(=O)(=O)N(C)Cc1ccc(OCC(=O)O)c(-c2cccc(C(F)(F)F)c2)c1` [Example 160, 2-(3-trifluoromethylphenyl)-4-((N,3,5-trimethylisoxazole-4-sulfonamido)methyl)phenoxyacetic acid] was 1000 to 10000 nM.

For orientation: IC50 means the concentration needed to halve the response being measured.
